According to US11440922B2, “Heterocyclylmethylidene derivatives and their use as modulators of mGluR5 receptors” (Recordati Industria Chimica e Farmaceutica S.p.A., priority 2017, dated 2022):

What was measured:
[1] = target: human mGluR5 receptor (Homo sapiens (Human), UniProt P41594); assay: Radioligand binding assay at cloned human mGluR5 receptor subtype ([3H]MPEP); details: 4 nM [3H]MPEP, CHO T-REx h-mGluR5 cells, 60 min at 25° C.; read-out: mGlu5 Ki
Source text: (§1) Cell lines stably transfected were generated using inducible expression vectors encoding human mGlu5 receptor using the Tetracycline-Regulated Expression system (T-REx™ system, Invitrogen, Life Technologies). Human mGluR5 open reading frame (ORF), comprehensive of the stop codon, were cloned into the pcDNA4/TO/myc-His™ A vector, carrying the TetO2. The insertion site was HindIII-PstI for mGluR5 receptors. The obtained constructs were then transfected into the T-REx CHO™ cell line using the FuGENE protocol (Roche); the CHO T-REx™ cell line stably expresses the Tet repressor (from the pcDNA6/TR plasmid) under the selection of blasticidin, 10 μg/ml. Stable clones were obtained selecting with zeocin 1 mg/ml and maintaining in ULTRA CHO medium (LONZA) supplemented with dialyzed FBS, zeocin, blasticidine, at 37° C., in an atmosphere of 5% CO2. The expression of h-mGluR5 receptors was de-repressed with 1 μg/ml tetracycline for 18 h before binding experimentation, while the expression of h-mGluR5 receptors was derepressed respectively with 3 ng/ml and 10 ng/ml tetracycline for 18 h before calcium fluorescence experimentation.
Radioligand Binding Assay at Cloned Human mGluR5 Receptor Subtype
Affinity at transmembrane glutamate metabotropic cloned human mGluR5 receptor was evaluated according to the methods of Anderson (Anderson et al., J Pharmacol. Exp. Ther., (2002), Vol. 303(3), pp. 1044-51), with some modifications. Human cloned mGluR5 was obtained by re-suspending CHO T-REx h-mGluR5 cells (50 μg/well) in 20 mM HEPES, 2 mM MgCl2, 2 mM CaCl2, pH 7.4, that then were incubated in a final volume of 1 ml for 60 min at 25° C. with 4 nM [^3H]MPEP in the absence or presence of competing drugs. Non-specific binding was determined in the presence of 10 μM MPEP. The incubation was stopped by addition of cold Tris buffer pH 7.4 and rapid filtration through 0.2% polyethyleneimine pretreated Filtermat 1204-401 (Perkin Elmer) filters. The filters were then washed with cold buffer and the radioactivity retained on the filters was counted by liquid scintillation spectrometry (Betaplate 1204 BS-Wallac).
(§2) The inhibition curves of the tested compounds at cloned mGluR5 subtypes were determined by nonlinear regression analysis using software Prism 4.0 (Graphpad, San Diego, Calif.). The IC50 values and pseudo-Hill slope coefficients were estimated by the program. The values for the inhibition constant, Ki, were calculated according to the equation Ki=IC50/(1+[L]/Kd), where [L] is the concentration of radioligand and Kd is the equilibrium dissociation constant of the radioligand-receptor complex (Cheng et al., Biochem. Pharmacol. (1973), Vol. 22, pp. 3099-3108).

[2] = target: human mGlu5 receptor (Homo sapiens (Human), UniProt P41594); assay: Calcium fluorescence measurements, antagonist potency (negative allosteric modulator activity); type: cell-based; details: EC80 of quisqualate as agonist, compounds applied 10 minutes before agonist
human mGlu5 receptor, sequence (P41594 21-1212): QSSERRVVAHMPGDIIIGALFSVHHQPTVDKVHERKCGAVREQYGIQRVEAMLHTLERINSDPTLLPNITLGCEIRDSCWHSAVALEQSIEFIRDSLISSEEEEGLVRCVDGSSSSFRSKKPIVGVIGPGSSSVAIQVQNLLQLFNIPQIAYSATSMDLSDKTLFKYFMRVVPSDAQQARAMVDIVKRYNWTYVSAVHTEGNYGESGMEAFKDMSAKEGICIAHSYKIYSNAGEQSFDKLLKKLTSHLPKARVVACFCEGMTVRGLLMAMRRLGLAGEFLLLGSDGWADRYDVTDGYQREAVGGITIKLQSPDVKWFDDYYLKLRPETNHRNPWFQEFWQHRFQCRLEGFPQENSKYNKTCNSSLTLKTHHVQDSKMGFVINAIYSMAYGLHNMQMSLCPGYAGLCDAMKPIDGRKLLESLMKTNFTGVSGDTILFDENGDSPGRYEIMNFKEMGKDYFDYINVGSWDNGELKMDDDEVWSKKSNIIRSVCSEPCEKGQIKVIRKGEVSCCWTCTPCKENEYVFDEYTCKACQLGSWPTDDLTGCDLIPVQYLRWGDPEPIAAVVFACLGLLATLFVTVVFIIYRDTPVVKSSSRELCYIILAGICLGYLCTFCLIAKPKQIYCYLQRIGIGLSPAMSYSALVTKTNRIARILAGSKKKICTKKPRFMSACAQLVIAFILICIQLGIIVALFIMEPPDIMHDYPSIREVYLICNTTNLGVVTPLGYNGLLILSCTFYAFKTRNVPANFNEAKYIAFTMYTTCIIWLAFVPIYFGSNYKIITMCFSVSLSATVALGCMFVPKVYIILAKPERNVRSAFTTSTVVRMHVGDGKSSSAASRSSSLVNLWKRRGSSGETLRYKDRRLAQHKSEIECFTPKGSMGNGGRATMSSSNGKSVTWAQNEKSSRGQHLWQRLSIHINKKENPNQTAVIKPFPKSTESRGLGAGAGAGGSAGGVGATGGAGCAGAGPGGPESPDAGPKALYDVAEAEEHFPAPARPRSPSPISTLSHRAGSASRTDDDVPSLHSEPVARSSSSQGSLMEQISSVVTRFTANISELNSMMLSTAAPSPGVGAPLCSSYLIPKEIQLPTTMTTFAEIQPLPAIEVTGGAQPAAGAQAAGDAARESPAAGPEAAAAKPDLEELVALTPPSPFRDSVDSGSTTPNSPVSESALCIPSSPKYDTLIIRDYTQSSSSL
Source text: as §1
Cells were seeded into black-walled, clear-bottom, 96-well plates at a density of 80000 cell/well, in RPMI (without Phenol Red, without L-glutamine; Gibco LifeTechnologies, CA) supplemented with 10% dialyzed FBS. Following 18-h incubation with tetracycline, the cells were loaded with […] Ca^2+-sensitive fluorescent dye Fluo-4/AM (Molecular Probes) in Hanks' balanced saline solution (HBSS, Gibco LifeTechnologies, CA) with […] Hepes (Sigma) and 2.5 mM probenecid (Sigma), for 1 h at 37° C. The cells were washed three times with HBSS to remove extracellular dye. Fluorescence signals were measured by using the fluorescence microplate reader Flexstation III (Molecular Devices) at sampling intervals of 1.5 s for 60 s.
The antagonist potency was determined using the EC80 of the quisqualate used as agonist and the potentiation of mGlu5 activation was determined using the EC20 of the agonist (quisqualate or glutamate). The compounds were applied 10 minutes before the application of the agonist.
The negative allosteric modulator activity (expressed as IC50) and the positive allosteric modulator activity (expressed as EC50) of the compounds of the invention for the mGlu5 receptors is between 0.1 and 1000 nM.
as §2

human mGluR5 receptor, sequence (P41594 21-1212): as above

| SMILES | Ki [1] [nM] | IC50 [2] [nM] |
| --- | --- | --- |
| CCOC(=O)N1CC/C(=C\C#Cc2cc(OC)ccn2)C(C)(C)C1 [Example 25, ethyl (4E)-4-[3-(4-methoxypyridin-2-yl)prop-2-yn-1-ylidene]-3,3-dimethylpiperidine-1-carboxylate] | 28.6 | 31.8 |
| CCOC(=O)N1CC/C(=C\C#Cc2cccc(C#N)c2)C(C)(C)C1 [Example 27, ethyl (4E)-4-[3-(3-cyanophenyl)prop-2-yn-1-ylidene]-3,3-dimethylpiperidine-1-carboxylate] | 0.64 | 8.6 |
| CCOC(=O)N1CC/C(=C\C#Cc2cccc(CC#N)c2)C(C)(C)C1 [Example 28, ethyl (4E)-4-{3-[3-(cyanomethyl)phenyl]prop-2-yn-1-ylidene}-3,3-dimethylpiperidine-1-carboxylate] | 2.12 | 37.2 |
| CCOC(=O)N1CC/C(=C\C#Cc2cc(F)cc(C#N)c2)C(C)(C)C1 [Example 32, ethyl (4E)-4-[3-(3-cyano-5-fluorophenyl)prop-2-yn-1-ylidene]-3,3-dimethylpiperidine-1-carboxylate] | 16.1 | 60 |
| CCOC(=O)N1CC/C(=C\C#Cc2cc(Cl)ccn2)C1(C)C [Example 91, ethyl (3E)-3-[3-(4-chloropyridin-2-yl)prop-2-yn-1-ylidene]-2,2-dimethylpyrrolidine-1-carboxylate] | 16.3 | 31.6 |
| CCOC(=O)N1CC/C(=C\C#Cc2cccc(Cl)c2)C1(C)C [Example 101, ethyl (3E)-3-[3-(3-chlorophenyl)prop-2-yn-1-ylidene]-2,2-dimethylpyrrolidine-1-carboxylate] | 11.2 | 66.3 |
